Experiments:
P70S6K = P70S6K (Homo sapiens (Human), UniProt P23443, T412E); test: P70S6K Enzyme Assay; assay type: biochemical; conditions: P70S6K T412E mutant, 24 μM ATP, mobility shift (Caliper)
Protocol: P70S6K inhibitor compounds are diluted and plated in 96 well plates. […] The reaction is incubated for 90 min at 25° C., before the addition of 10 mM EDTA to stop the reaction. The proportion of substrate and product (phosphorylated) peptide is analysed on a Caliper Life Sciences Lab Chip 3000, using a pressure of −1.4 psi, and upstream and downstream voltages of −3000 and −700 respectively. Product peaks are resolved before substrate peaks on the resulting chromatograms.

AKT = AKT (Homo sapiens (Human), UniProt P31749); test: AKT Enyzme Assay; assay type: biochemical; conditions: His-AKT (Full Length), 160 uM ATP, mobility shift (Caliper)
Protocol: A TTP Mosquito liquid handling instrument is used to place 125 nl of the appropriate concentration of inhibitor in 100% DMSO (for a dose response curve calculation) into each well of a 384-well plate.
The reaction is incubated for 90 min at 25 C, and then stopped by the addition of 70 μl of Stop buffer (100 mM HEPES pH 7.5, 0.015% Brij-35, 10 mM EDTA (Sigma, E7889)).
The plate is read on a Caliper LC 3000 in an Off-Chip mobility shift assay format, using the following parameters for a 12-sipper chip: screening pressure −2.3 psi, upstream voltage −500, and downstream voltage −3000. These conditions cause unphosphorylated substrate and phosphorylated product peptide to resolve as separate peaks allowing direct measurement of percentage of conversion of substrate to product. The percent conversion can be plotted against concentration of inhibitor to produce a sigmoidal dose response curve, from which an IC50 can be calculated.

Sequence of AKT (P31749 whole entry): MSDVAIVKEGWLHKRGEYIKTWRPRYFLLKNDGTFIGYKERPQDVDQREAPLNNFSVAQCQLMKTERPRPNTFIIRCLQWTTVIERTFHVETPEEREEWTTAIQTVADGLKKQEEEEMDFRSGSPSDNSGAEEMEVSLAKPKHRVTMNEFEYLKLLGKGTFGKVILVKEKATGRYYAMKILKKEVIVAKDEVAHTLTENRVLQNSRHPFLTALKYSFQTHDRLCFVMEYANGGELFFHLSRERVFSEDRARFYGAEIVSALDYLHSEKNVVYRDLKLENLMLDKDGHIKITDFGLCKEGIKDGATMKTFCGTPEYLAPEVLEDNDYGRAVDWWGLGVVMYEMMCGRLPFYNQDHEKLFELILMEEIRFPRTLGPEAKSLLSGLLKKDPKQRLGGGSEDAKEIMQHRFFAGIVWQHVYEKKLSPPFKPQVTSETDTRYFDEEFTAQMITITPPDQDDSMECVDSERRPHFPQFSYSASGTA
Sequence of P70S6K (P23443 1-421 T412E): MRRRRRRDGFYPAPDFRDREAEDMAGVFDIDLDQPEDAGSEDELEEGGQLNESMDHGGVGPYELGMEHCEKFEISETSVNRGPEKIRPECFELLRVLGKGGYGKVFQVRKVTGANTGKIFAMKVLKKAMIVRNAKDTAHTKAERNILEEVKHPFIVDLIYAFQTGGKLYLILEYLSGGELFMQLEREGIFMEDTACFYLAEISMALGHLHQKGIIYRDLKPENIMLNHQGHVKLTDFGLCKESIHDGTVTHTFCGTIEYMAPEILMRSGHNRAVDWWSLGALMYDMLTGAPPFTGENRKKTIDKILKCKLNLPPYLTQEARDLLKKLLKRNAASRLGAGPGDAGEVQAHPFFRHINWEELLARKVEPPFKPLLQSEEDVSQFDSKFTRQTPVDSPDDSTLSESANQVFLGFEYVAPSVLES

SMILES | IC50 (P70S6K) | IC50 (AKT)
NC(=O)c1ccc(N2CCC(CCc3ccccc3)C2)c2cncnc12 (racemic) [Example 64, 5-(3-phenethylpyrrolidin-1-yl)quinazoline-8-carboxamide] | 240 nM | 3100 nM
NC(=O)c1ccc(N2CCN(c3ccccc3)CC2)c2cncnc12 [Example 91, 5-[4-phenyl-piperazin-1-yl]-quinazoline-8-carboxylic acid amide] | 3000 nM | 15000 nM
NC(=O)c1ccc(N2CCN(c3cccc(C(F)(F)F)c3)CC2)c2cncnc12 [Example 109, 5-[4-(3-trifluoromethylphenyl)-piperazin-1-yl]-quinazoline-8-carboxylic acid amide] | 11000 nM | 23000 nM
NC(=O)c1ccc(NCCc2ccc(F)c(F)c2)c2cncnc12 [Example 101, 5-[2-(3,4-difluorophenyl)ethylamino]quinazoline-8-carboxamide] | 360 nM | 41000 nM
NC(=O)c1ccc(N2CCC(c3cccc(C(F)(F)F)c3)C(N)C2)c2cncnc12 (racemic) [Example 107, 5-[3-Amino-4-(3-trifluoromethyl-phenyl)-piperidin-1-yl]-quinazoline-8-carboxylic acid amide] | 380 nM | 8100 nM
CNCC1CCCN(c2ccc(C(N)=O)c3ncncc23)C1 (racemic) [Example 59, 5-(3-((methylamino)methyl)piperidin-1-yl)quinazoline-8-carboxamide] | 5900 nM | 18000 nM
NC(=O)c1ccc(NCCc2ccccc2)c2cncnc12 [Example 98, 5-(phenethylamino)quinazoline-8-carboxamide] | 89 nM | 5600 nM
NC(=O)c1ccc(N2CCC(CNC(=O)Cc3ccccc3)C2)c2cncnc12 (stereo not shown) [Example 118] | 260 nM | –
NC(=O)c1ccc(NCC(c2ccccc2)N2CCNCC2)c2cncnc12 (racemic) [Example 69, 5-((2-phenyl-2-(piperazin-1-yl)ethyl)amino)quinazoline-8-carboxamide] | – | 10000 nM
NC(=O)c1ccc(NC(=O)C2C[C@@H](c3ccccc3)CN2)c2cccnc12 (stereo partly drawn) [Example 28, 5-((4S)-4-phenylpyrrolidine-2-carboxamido)quinoline-8-carboxamide] | 578 nM | –
NC(=O)c1ccc(N2CCNC(c3ccccc3)C2)c2cccnc12 (racemic) [Example 18, 5-(3-phenylpiperazin-1-yl)quinoline-8-carboxamide] | 670 nM | –
NC(=O)c1ccc(NCc2ccc(F)c(F)c2)c2cccnc12 [Example 35, 5-(3,4-Difluorobenzylamino)-quinoline-8-carboxamide] | > 1000 nM | –
NC(=O)c1ccc(N2CC[C@](N)(C(=O)Nc3ccccc3)C2)c2cncnc12 (single isomer, unassigned) [Example 85] | 11500 nM | –
NC(=O)c1ccc(N2CCN(c3ccccc3Cl)CC2)c2cncnc12 [Example 119, 5-[4-(2-chloro-phenyl)-piperazin-1-yl]-quinazoline-8-carboxylic acid amide] | 400 nM | –
NC(=O)c1ccc(N2CCC(NC(=O)c3cccc(C(F)(F)F)c3)C2)c2cncnc12 (racemic) [Example 48, 5-(3-(3-(trifluoromethyl)benzamido)pyrrolidin-1-yl)quinazoline-8-carboxamide] | 2200 nM | –
NC(=O)c1ccc(N2CC[C@@](N)(C(=O)Nc3ccc(F)c(C(F)(F)F)c3)C2)c2cncnc12 (single isomer, unassigned) [Example 116] | 520 nM | –
NC(=O)c1ccc(NCc2ccccc2F)c2cccnc12 [Example 32, 5-(2-Fluorobenzylamino)-quinoline-8-carboxamide] | > 1000 nM | –
NC(=O)c1ccc(NCc2cc(F)c(F)c(F)c2)c2cccnc12 [Example 36, 5-(3,4,5-trifluorobenzylamino)-quinoline-8-carboxamide] | > 1000 nM | –
NC(=O)c1ccc(NCCc2ccccc2)c2cccnc12 [Example 40, 5-(Phenylethylamino)-quinoline-8-carboxamide] | > 1000 nM | –
NC(=O)c1ccc(N2CC[C@@H](CNC(=O)c3ccc(F)c(F)c3)C2)c2cncnc12 (single isomer, unassigned) [Example 115] | 450 nM | –
NC(=O)c1ccc(NCC2(C(=O)Nc3ccccc3)CCNC2)c2cccnc12 (racemic) [Example 20, 5-(((3-(phenylcarbamoyl)pyrrolidin-3-yl)methyl)amino)quinoline-8-carboxamide] | > 1000 nM | –
NC(=O)c1ccc(N2CCC(CNC(=O)c3cc(F)ccc3F)C2)c2cncnc12 (racemic) [Example 106, 5-(3-((2,5-difluorobenzamido)methyl)pyrrolidin-1-yl)quinazoline-8-carboxamide] | 510 nM | –
NC(=O)c1ccc(N2CC[C@H](CNC(=O)c3ccc(F)c(F)c3)C2)c2cncnc12 (single isomer, unassigned) [Example 114] | 470 nM | –
NC(=O)c1ccc(N2CCC(N)(C(=O)Nc3ccccc3)C2)c2cncnc12 (racemic) [Example 15, 5-(3-amino-3-(phenylcarbamoyl)pyrrolidin-1-yl)quinazoline-8-carboxamide] | 2300 nM | –
NC(=O)c1ccc(NC(=O)C2NC[C@@H]2c2ccccc2)c2cccnc12 (stereo partly drawn) [Example 30, 5-((3S)-3-phenylazetidine-2-carboxamido)quinoline-8-carboxamide] | > 1000 nM | –

Further lines, results first:

IC50 (P70S6K) | IC50 (AKT) | SMILES
140 nM | 2100 nM | NC(=O)c1ccc(NC2CNCCC2c2cccc(C(F)(F)F)c2)c2cncnc12 (stereo not shown) [Example 74, 5-((4-(3-(trifluoromethyl)phenyl)piperidin-3-yl)amino)quinazoline-8-carboxamide]
20000 nM | > 100000 nM | CN1CCC(Nc2ccc(C(N)=O)c3ncncc23)C1 (racemic) [Example 58, 5-((1-methylpyrrolidin-3-yl)amino)quinazoline-8-carboxamide]
2300 nM | > 100000 nM | NC(=O)c1ccc(N2CCN(c3ccc(F)cc3)CC2)c2cncnc12 [Example 108, 5-[4-(4-fluorophenyl)-piperazin-1-yl]-quinazoline-8-carboxylic acid amide]
22000 nM | > 100000 nM | Cc1cccc(N2CCC(Nc3ccc(C(N)=O)c4ncncc34)CC2)c1 [Example 57, 5-((1-(m-tolyl)piperidin-4-yl)amino)quinazoline-8-carboxamide]
290 nM | 2200 nM | NC(=O)c1ccc(N[C@H]2CNCC[C@@H]2c2ccc(F)cc2)c2cncnc12 (single isomer, unassigned) [Example 80]
33 nM | 570 nM | NC(=O)c1ccc(NC2CNCCC2c2ccc(F)c(Cl)c2)c2cncnc12 (stereo not shown) [Example 76, 5-((4-(3-chloro-4-fluorophenyl)piperidin-3-yl)amino)quinazoline-8-carboxamide]
1700 nM | > 100000 nM | NC(=O)c1ccc(NC[C@H]2CCNC2)c2cncnc12 [Example 61, (S)-5-((pyrrolidin-3-ylmethyl)amino)quinazoline-8-carboxamide]
17100 nM | – | NC(=O)c1ccc(N2CC[C@H](c3cccc(F)c3)[C@H](N)C2)c2cncnc12 (racemic) [Example 88, 5-[(3S,4R)-3-Amino-4-(3-fluoro-phenyl)-piperidin-1-yl]-quinazoline-8-carboxylic acid amide]
23 nM | – | NC(=O)c1ccc(NC2CNC[C@@H]2c2ccc(OC(F)(F)F)cc2)c2cncnc12 (mixture of isomers) [Example 1, 5-((4-(4-(trifluoromethoxy)phenyl)pyrrolidin-3-yl)amino)quinazoline-8-carboxamide]
690 nM | – | NC(=O)c1ccc(N[C@@H]2CNC[C@H]2c2cccc(OC(F)(F)F)c2)c2cccnc12 (single isomer, unassigned) [Example 23]
290 nM | – | NC(=O)c1ccc(NC2CNC[C@@H]2C(=O)Nc2cccc(F)c2)c2cncnc12 (mixture of isomers) [Example 13, 5-((-4-((3-fluorophenyl)carbamoyl)pyrrolidin-3-yl)amino)quinazoline-8-carboxamide]
250 nM | – | NC(=O)c1ccc(N2CC[C@H](c3ccc(F)cc3)[C@H](N)C2)c2cncnc12 (racemic) [Example 86, 5-[(3S,4R)-3-Amino-4-(4-fluoro-phenyl)-piperidin-1-yl]-quinazoline-8-carboxylic acid amide]
23 nM | – | NC(=O)c1ccc(N[C@@H]2CNC[C@@H]2c2cccc(OC(F)(F)F)c2)c2cccnc12 (racemic) [Example 24, 5-((-4-(3-(trifluoromethoxy)phenyl)pyrrolidin-3-yl)amino)quinoline-8-carboxamide]
> 1000 nM | – | NC(=O)c1ccc(NCC2(C(=O)Nc3ccccc3)CCNCC2)c2cncnc12 [Example 14, 5-(((4-(phenylcarbamoyl)piperidin-4-yl)methyl)amino)quinazoline-8-carboxamide]
875 nM | – | NC(=O)c1ccc(NCc2ccc(F)cc2)c2cccnc12 [Example 31, 5-(4-Fluorobenzylamino)-quinoline-8-carboxamide]
9.9 nM | – | NC(=O)c1ccc(NC2CNCCC2c2ccc(C(F)(F)F)c(F)c2)c2cncnc12 (single isomer, unassigned) [Example 5]

Reference: patent publication US9139568B2 (Merck Patent GmbH, priority 2011, dated 2015)
